Data from ChEMBL document CHEMBL1144094, “Phenylethanoid glycosides from Globularia trichosantha” (J Nat Prod, 1999).
Activity calls are given as the source filed them. The rule behind the calls is not given here.

test system: Radical scavenging activity; assay: Antioxidant activity assessed as DPPH free radical scavenging activity by TLC autographic assay; assay type: functional

| Compound | Activity |
| --- | --- |
| C[C@@H]1O[C@@H](O[C@@H]2[C@@H](O)[C@H](OCCc3ccc(O)c(O)c3)O[C@H](CO)[C@H]2OC(=O)/C=C/c2ccc(O)c(O)c2)[C@H](O)[C@H](O)[C@H]1O | Active |
| C[C@@H]1O[C@@H](O[C@@H]2[C@@H](O)[C@H](OCCc3ccc(O)c(O)c3)O[C@H](CO)[C@H]2OC(=O)/C=C/c2ccc(O)c(O)c2)[C@H](O)[C@H](O)[C@H]1O[C@@H]1O[C@H](CO)[C@@H](O)[C@H](O)[C@H]1O | Active |
| C[C@@H]1O[C@@H](O[C@@H]2[C@@H](O)[C@H](OCCc3ccc(O)c(O)c3)O[C@H](CO)[C@H]2OC(=O)/C=C/c2ccc(O)c(O)c2)[C@H](O)[C@H](O)[C@H]1O[C@@H]1OC[C@@H](O)[C@H](O)[C@H]1O | Active |
| C[C@@H]1O[C@@H](O[C@@H]2[C@H]3O[C@@H](c4ccc(O)c(O)c4)CO[C@@H]3O[C@H](CO)[C@H]2OC(=O)/C=C/c2ccc(O)c(O)c2)[C@H](O)[C@H](O)[C@H]1O | Active |
| C[C@@H]1O[C@@H](O[C@@H]2[C@@H](O)[C@H](OCCc3ccc(O)c(O)c3)O[C@H](CO[C@@H]3OC[C@@H](O)[C@H](O)[C@H]3O)[C@H]2OC(=O)/C=C/c2ccc(O)c(O)c2)[C@H](O)[C@H](O)[C@H]1O[C@@H]1OC[C@@H](O)[C@H](O)[C@H]1O | Active |
